Laboratory results taken from patent US20220232831A1, “NOVEL NON-CODING HETEROCYCLIC AMINO ACIDS (NCHAA) AND THEIR USE AS HERBICIDES” (Fortephest Ltd., priority 2019, published 2022).

How the values were obtained:
[1] = tested on: Seeds of Lettuce R. (Super-Jericho); assay: Filter paper bioassay with lettuce seeds (germination and early plant development); format: in vivo; conditions: lettuce seeds on filter paper; 1, 0.1, 0.01, 0.001 mM; radicle and shoots assessed after 6 days
How it was run: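 Lettuce seeds (10 per plate) were placed on filter paper with 2.0 ml water or test material at 1, 0.1, 0.01 or 0.001 mM. Plates were kept dark for 48 h, then grown 4 days at 22° C under a 6/18 dark/light cycle. At day 6, radicle and shoot development was scored visually; MEC is the lowest concentration causing deviation from control.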

[2] = tested on: Romaine lettuce (Lactuca sativa L.) plants; assay: Post-emergency herbicidal activity on Romaine lettuce plants; format: in vivo; conditions: Romaine lettuce at stage 2 to 3 leaves; compound in 0.1% Silwet, up to 0.5%; visual evaluation vs control plants
How it was run: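 Plants at the 2 to 3 leaf stage were treated with compound in 0.1% aqueous Silwet at 0.0% (Control) to 0.5%, with 20 to 40 plants per test. Vigor, height and leaf color were scored 0 (dead) to 100 (healthy) at 7, 14 and 21 DAA, and aboveground wet weight was measured.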

Marianum (Thistle) = assay: Herbicidal activity on development of weeds and crops (pot test); format: in vivo, Silybum marianum; conditions: 32 days after application, 0 = dead, 100% = healthy
Protocol: (§1) The experiment included 225 pots. Weed seeds were sawn in 0.3-liter pots, containing medium-heavy clay-loam soil from Newe Ya'ar Research Center organic fields (55% clay, 23% silt, 20% sand, 2% organic matter, pH 7.1). The experiment was conducted in a completely randomized design. Each treatment was replicated 5 times (5 pots). The herbicides were applied at 200 L/ha with a motorized sprayer equipped with a Tee Jet 8001E nozzle (Spraying Systems Co., North Ave., Wheaton, Ill. 60188, USA) and operated at a pressure of 300 kPa. The pots were transferred to a glasshouse 24 hours after herbicide application and were sprinkler irrigated to field capacity of the soil. The plants were grown in the glasshouse during the entire experiment. Plant development at 6, 12, 19, 26 and 32 days after application (DAA) were evaluated on a scale of 0 to 100%, in which 0 represents dead plants and 100% represents healthy plants according to plant vigor, height, and leaf color.
(§2) Phalaris minor (Cannarygrass); Setaria verticillata (Bristlegrass); Solanum nigrum (Black nightshade) Sinapis arvensis (Mustard); Silybum marianum (Thistle); Chenopodium album (Lambsquarter); Amaranthus (Pigweed); Fodder corn; Avena sativa (Cultured oats.
(§3) Plant development was evaluated on a scale of 0 to 100%, in which 0 represents dead plants and 100% represents healthy plants according to plant vigor, height, and leaf color.

[3] = tested on: Solanum nigrum (Black nightshade); assay: as above; format: in vivo; conditions: 32 days after application, 0 = dead, 100% = healthy
Protocol: as §1, §2, §3

Fodder Corn = assay: as above; format: in vivo; conditions: Fodder corn (crop); 32 days after application; 0 = dead, 100% = healthy
Protocol: as §1, §2, §3

[4] = tested on: Amaranthus blitoides (Pigweed); assay: as above; format: in vivo; conditions: 32 days after application, 0 = dead, 100% = healthy
Protocol: as §1, §2, §3

[5] = tested on: Sinapis arvensis (Mustard); assay: as above; format: in vivo; conditions: 32 days after application, 0 = dead, 100% = healthy
Protocol: as §1, §2, §3

[6] = tested on: Setaria verticillata (Bristlegrass); assay: as above; format: in vivo; conditions: 32 days after application, 0 = dead, 100% = healthy
Protocol: as §1, §2, §3

[7] = tested on: Phalaris minor (Cannarygrass); assay: as above; format: in vivo; conditions: 32 days after application, 0 = dead, 100% = healthy
Protocol: as §1, §2, §3

[8] = tested on: Chenopodium album (Lambsquarter); assay: as above; format: in vivo; conditions: 32 days after application, 0 = dead, 100% = healthy
Protocol: as §1, §2, §3

[9] = tested on: Avena sativa (Cultured oats); assay: as above; format: in vivo; conditions: Avena sativa (crop); 32 days after application; 0 = dead, 100% = healthy
Protocol: as §1, §2, §3

Compound | Minimal Effective Concentration (MEC) as activity score, seeds germination & early plants development [1] | post-emergency herbicidal activity (Activity Index: plant's development vs Control) [2] | also measured
NC(Cc1ccnc(Br)c1)C(=O)O (stereo not shown) [Code 632, 2-amino-3-(2-bromopyridin-4-yl)propanoic acid] | Strong (0.1 mM) | Maximal (Less than 15) | Plants' Development (% of Control group) following treatment with NCHAAs (Marianum (Thistle)): 15%; Plants' Development (% of Control group) following treatment with NCHAAs [3]: 25%; Plants' Development (% of Control group) following treatment with NCHAAs (Fodder Corn): 100%; Plants' Development (% of Control group) following treatment with NCHAAs [4]: 100%; Plants' Development (% of Control group) following treatment with NCHAAs [5]: 80%; Plants' Development (% of Control group) following treatment with NCHAAs [6]: 20%; Plants' Development (% of Control group) following treatment with NCHAAs [7]: 10%; Plants' Development (% of Control group) following treatment with NCHAAs [8]: 20%; Plants' Development (% of Control group) following treatment with NCHAAs [9]: 100%
NC(Cc1cc(Cl)sc1Cl)C(=O)O (stereo not shown) [Code 517, 2-amino-3-(2,5-dichlorothiophen-3-yl)propanoic acid] | Maximal (0.01 mM and less) | Maximal (Less than 15) | Plants' Development (% of Control group) following treatment with NCHAAs (Marianum (Thistle)): 35%; Plants' Development (% of Control group) following treatment with NCHAAs [3]: 15%; Plants' Development (% of Control group) following treatment with NCHAAs (Fodder Corn): 90%; Plants' Development (% of Control group) following treatment with NCHAAs [4]: 10%; Plants' Development (% of Control group) following treatment with NCHAAs [5]: 0%; Plants' Development (% of Control group) following treatment with NCHAAs [6]: 100%; Plants' Development (% of Control group) following treatment with NCHAAs [7]: 60%; Plants' Development (% of Control group) following treatment with NCHAAs [8]: 10%; Plants' Development (% of Control group) following treatment with NCHAAs [9]: 100%
CCOC(=O)C(Cc1ccsc1)NC(C)=O (stereo not shown) [Code 571] | Strong (0.1 mM) | Very Strong (From 15 to 25) | 
Nc1cc(CC(N)C(=O)O)ccn1 (stereo not shown) [Code 608] | Moderate (1 mM) | Moderate (From 50 to 75) | 
NC(Cc1cnc(O)c([N+](=O)[O-])c1)C(=O)O (stereo not shown) [Code 665] | Moderate (1 mM) | Weak (More than 75) | 
Cc1sc(C)c(CC(N)C(=O)O)c1C (stereo not shown) [Code 512] | Weak (More than 1 mM) | Weak (More than 75) | 
NC(Cc1ccc(=O)[nH]c1)C(=O)O (stereo not shown) [Code 650] | Moderate (1 mM) | Weak (More than 75) | 
CCOC(=O)C(Cc1nc(Cl)sc1Cl)NC(C)=O (stereo not shown) [Code 567] | Weak (More than 1 mM) | Maximal (Less than 15) | 
NC(Cc1ccc[nH]1)C(=O)O (stereo not shown) [Code 703] | Weak (More than 1 mM) | Weak (More than 75) | 
NC(Cc1c(Cl)cncc1Cl)C(=O)O (stereo not shown) [Code 629] | Weak (More than 1 mM) | Moderate (From 50 to 75) | 
NC(CNS(=O)(=O)c1cc(Br)sc1Br)C(=O)O (stereo not shown) [Code 558] | Maximal (0.01 mM and less) | Very Strong (From 15 to 25) | 
